Read-outs that look alike come from different tables or passages of the source.
Tested on: C. parvum strain UGA1
Test: C. parvum growth inhibition assay (Nluc luminescence in HCT-8 cells)
Format: cell-based, Cryptosporidium parvum
Settings: Cryptosporidium parvum; for EC50: HCT-8, 48 h, C. parvum growth inhibition in HCT-8 cells, 48 hours, 6 concentrations 10-0.04 μM; for inhibition at 1 µM / inhibition at 10 µM: HCT-8; for inhibition at 1 µM: read-out: % inh @ 1 uM C. parvum; for inhibition at 10 µM: read-out: % inh @ 10 uM C. parvum
Procedure: C. parvum GROWTH INHIBITION ASSAYS
C. parvum growth inhibition was performed as described in Hulverson M A, Vinayak S, Choi R, Schaefer D A, Castellanos-Gonzalez A, Vidadala R S R, Brooks C F, Herbert G T, Betzer D P, Whitman G R, Sparks H N, Arnold S L M, Rivas K L, Barrett L K, White A C Jr, Maly D J, Riggs M W, Striepen B, Van Voorhis W C, Ojo K K. Bumped-Kinase Inhibitors for Cryptosporidiosis Therapy. J Infect Dis. 2017 Apr. 15; 215(8):1275-1284.
C. parvum strain UGA1 […] (ATCC, Manassas, VA) were prepared as described below. HCT-8 cells were inoculated onto 96-well plates were grown for 48 hours to 90%-100% confluence. C. parvum oocysts were then incubated for 10 minutes in 10% bleach at room temperature and washed with Dulbecco's phosphate-buffered saline. One thousand oocysts per well were applied to plates with Roswell Park Memorial Institute 1640 (RPMI) medium supplemented with 10% horse serum and 1% penicillin/streptomycin. Compounds of Formula (I), Formula (II), and Formula (III) were added to the plates at different concentrations and the plates were incubated for 48 hours. Following the incubation, the monolayers were lysed for 1 hour before a luciferase reagent was added, and relative luminescence units were determined.
For certain compounds of Formula I, Formula II, and Formula III, EC50 values were calculated using curves calculated from Prism after analysis of C. parvum growth inhibition at 6 different concentrations: 10, 3.33, 1.11, 0.37, 0.12, and 0.04 μM. […] For certain compounds of Formula I, Formula II, and Formula III, single point inhibition values of 0-33% (activity level D), between 33% and 66% (activity level E), and between 67% and 100% (activity level F) are also shown in Table 1 below.

[1] = single point inhibition at 1 uM
[2] = single point inhibition at 10 uM
[3] = single point inhibition @ 10 uM

Row | SMILES | EC50 [µM] | inhibition at 1 µM [1] [%] | inhibition at 10 µM [2] [%] | other results
1 | O=C(Nc1cc2[nH]c(-c3nc(C(F)(F)F)cs3)cc2cn1)C1CC1 [Example 104, N-(2-(4-(trifluoromethyl)thiazol-2-yl)-1H-pyrrolo[3,2-c]pyridin-6-yl)cyclopropanecarboxamide] | > 1 | – | – | –
2 | Cn1cncc1-c1cc2cnc(Nc3ccc(F)cc3)cc2[nH]1 [Example 229, N-(4-fluorophenyl)-2-(1-methyl-1H-imidazol-5-yl)-1H-pyrrolo[3,2-c]pyridin-6-amine] | – | 33 to 66 | 33 to 66 | –
3 | COc1nccc(-c2cc3cnc(NC(=O)C4C5CCCC54)cc3[nH]2)n1 (stereo not shown) [Example 176, N-(2-(2-methoxypyrimidin-4-yl)-1H-pyrrolo[3,2-c]pyridin-6-yl)bicyclo[3.1.0]hexane-6-carboxamide] | – | – | – | inhibition at 1 µM (single point inhibition @ 1 uM): 0 to 33%; inhibition at 10 µM [3]: 67 to 100%
4 | CC(Oc1nccc(-c2cc3cnc(NC(=O)c4cnn(C)c4)cc3[nH]2)n1)C(F)F (stereo not shown) [Example 141, N-(2-(2-(1,1-difluoropropan-2-yloxy)pyrimidin-4-yl)-1H-pyrrolo[3,2-c]pyridin-6-yl)-1-methyl-1H-pyrazole-4-carboxamide] | – | – | – | inhibition at 1 µM (single point inhibition @ 1 uM): 0 to 33%; inhibition at 10 µM [3]: 67 to 100%
5 | Cc1cc(-c2[nH]c3cc(NC4CCOC4)ncc3c2C)ccn1 (stereo in doubt) [Example 368, (R)-3-methyl-2-(2-methylpyridin-4-yl)-N-(tetrahydrofuran-3-yl)-1H-pyrrolo[3,2-c]pyridin-6-amine] | > 1 | – | – | –
6 | Cn1c(-c2cc(C(F)(F)F)ncn2)cc2cnc(NC3CCOCC3)cc21 [Example 392, 1-methyl-N-(tetrahydro-2H-pyran-4-yl)-2-(6-(trifluoromethyl)pyrimidin-4-yl)-1H-pyrrolo[3,2-c]pyridin-6-amine] | > 1 | – | – | –
7 | Cc1cc(-c2[nH]c3cc(NC4CCOC4)ncc3c2C)ccn1 (stereo in doubt) [Example 367, (S)-3-methyl-2-(2-methylpyridin-4-yl)-N-(tetrahydrofuran-3-yl)-1H-pyrrolo[3,2-c]pyridin-6-amine] | > 1 | – | – | –
8 | Cn1c(-c2cnco2)cc2cnc(NC(=O)C3CC3)cc21 [Example 74, N-(1-methyl-2-(oxazol-5-yl)-1H-pyrrolo[3,2-c]pyridin-6-y)cyclopropanecarboxamide] | > 1 | – | – | –
9 | Cn1c(-c2cc(C(F)(F)F)ncn2)cc2cnc(NC(=O)C3CC3)cc21 [Example 130, N-(1-methyl-2-(6-(trifluoromethyl)pyrimidin-4-yl)-1H-pyrrolo[3,2-c]pyridin-6-yl)cyclopropanecarboxamide] | > 1 | – | – | –
10 | O=C(Nc1cc2[nH]c(-c3ccnc(OCC(F)F)n3)cc2cn1)c1cnn(CC2CCCO2)c1 (stereo in doubt) [Example 234, (S)-N-(2-(2-(2,2-difluoroethoxy)pyrimidin-4-yl)-1H-pyrrolo[3,2-c]pyridin-6-yl)-1-((tetrahydrofuran-2-yl)methyl)-1H-pyrazole-4-carboxamdie] | – | 33 to 66 | 33 to 66 | –
11 | CC(C)n1cc(C(=O)Nc2cc3[nH]c(-c4ccnc(NCC(F)(F)F)n4)cc3cn2)cn1 [Example 172, 1-isopropyl-N-(2-(2-(2,2,2-trifluoroethylamino)pyrimidin-4-yl)-1H-pyrrolo[3,2-c]pyridin-6-yl)-1H-pyrazole-4-carboxamide] | – | – | – | inhibition at 1 µM (single point inhibition @ 1 uM): 67 to 100%; inhibition at 10 µM [3]: 67 to 100%
12 | CCOc1nccc(-c2cc3cnc(NC(=O)c4ccc(OCCOC)c(OC)c4)cc3[nH]2)n1 [Example 249, N-(2-(2-ethoxypyrimidin-4-yl)-1H-pyrrolo[3,2-c]pyridin-6-yl)-3-methoxy-4-(2-methoxyethoxy)benzamide] | – | 0 to 33 | 0 to 33 | –
13 | Cn1cc(C(=O)Nc2cc3[nH]c(-c4ccnc(OCC(C)(C)C)n4)cc3cn2)cn1 [Example 319, 1-methyl-N-(2-(2-(neopentyloxy)pyrimidin-4-yl)-1H-pyrrolo[3,2-c]pyridin-6-yl)-1H-pyrazole-4-carboxamide] | – | 0 to 33 | 0 to 33 | –
14 | Cn1cc(C(=O)Nc2cc3[nH]c(-c4ccnc(OCCC(F)(F)F)n4)cc3cn2)cn1 [Example 213, 1-methyl-N-(2-(2-(3,3,3-trifluoropropoxy)pyrimidin-4-yl)-1H-pyrrolo[3,2-c]pyridin-6-yl)-1H-pyrazole-4-carboxamide] | – | 0 to 33 | 67 to 100 | –
15 | Cc1cc(-c2cc3cnc(NC(=O)c4cc(C(F)F)nn4C)cc3[nH]2)ccn1 [Example 218, 3-(difluoromethyl)-1-methyl-N-(2-(2-methylpyridin-4-yl)-1H-pyrrolo[3,2-c]pyridin-6-yl)-1H-pyrazole-5-carboxamide] | – | 0 to 33 | 33 to 66 | –
16 | Cn1ccc(C(=O)Nc2cc3[nH]c(-c4ccncc4)cc3cn2)n1 [Example 238, 1-methyl-N-(2-(pyridin-4-yl)-1H-pyrrolo[3,2-c]pyridin-6-yl)-1H-pyrazole-3-carboxamide] | – | 0 to 33 | 0 to 33 | –
17 | CC(C)c1nccc(-c2cc3cnc(NC4CCOCC4)cc3n2C)n1 [Example 391, 2-(2-isopropylpyrimidin-4-yl)-1-methyl-N-(tetrahydro-2H-pyran-4-yl)-1H-pyrrolo[3,2-c]pyridin-6-amine] | > 1 | – | – | –
18 | CCn1cc(C(=O)Nc2cc3[nH]c(-c4ccnc(OCC(F)F)n4)cc3cn2)c(C)n1 [Example 318] | – | 0 to 33 | 0 to 33 | –
19 | Cc1cc(-c2cc3cnc(NC(=O)c4cccc5[nH]ncc45)cc3[nH]2)ccn1 [Example 289, N-(2-(2-methylpyridin-4-yl)-1H-pyrrolo[3,2-c]pyridin-6-yl)-1H-indazole-4-carboxamide] | – | 0 to 33 | 0 to 33 | –
20 | O[C@H]1CC[C@@H](Nc2cc3[nH]c(-c4cccnc4)cc3cn2)CC1 [Example 251, (1s,4s)-4-(2-(pyridin-3-yl)-1H-pyrrolo[3,2-c]pyridin-6-ylamino)cyclohexanol] | – | 0 to 33 | 0 to 33 | –
21 | CC(C)n1cc(C(=O)Nc2cc3[nH]c(-c4ccncc4)cc3cn2)cn1 [Example 162, 1-isopropyl-N-(2-(pyridin-4-yl)-1H-pyrrolo[3,2-c]pyridin-6-yl)-1H-pyrazole-4-carboxamide] | – | – | – | inhibition at 1 µM (single point inhibition @ 1 uM): 0 to 33%; inhibition at 10 µM [3]: 67 to 100%
22 | CN(CC(F)(F)F)c1nccc(-c2cc3cnc(NC4CCOCC4)cc3n2C)n1 [Example 30, 1-Methyl-2-(2-(methyl(2,2,2-trifluoroethyl)amino)pyrimidin-4-yl)-N-(tetrahydro-2h-pyran-4-yl)-1H-pyrrolo[3,2-c]pyridin-6-amine] | > 1 | – | – | inhibition at 1 µM (single point inhibition @ 1 uM): 0 to 33%
23 | CC(=O)Nc1cc2c(cn1)cc(C#N)n2C [Example 245, N-(2-cyano-1-methyl-1H-pyrrolo[3,2-c]pyridin-6-yl)acetamide] | – | 0 to 33 | 0 to 33 | –
24 | CC(C)CC(=O)Nc1cc2[nH]c(-c3ccncc3)cc2cn1 [Example 134, 3-methyl-N-(2-(pyridin-4-yl)-1H-pyrrolo[3,2-c]pyridin-6-yl)butanamide] | – | – | – | inhibition at 1 µM (single point inhibition @ 1 uM): 0 to 33%; inhibition at 10 µM [3]: 67 to 100%
25 | CCOc1nccc(-c2cc3cnc(NC(=O)[C@@H]4C[C@H]4C)cc3[nH]2)n1 (stereo in doubt) [Example 153, (1R,2R)-N-(2-(2-ethoxypyrimidin-4-yl)-1H-pyrrolo[3,2-c]pyridin-6-yl)-2-methylcyclopropanecarboxamide] | – | – | – | inhibition at 1 µM (single point inhibition @ 1 uM): 0 to 33%; inhibition at 10 µM [3]: 67 to 100%

Reference: patent US20240124444A1 (Celgene Corporation, priority 2020, published 2024)
